Experimental data: ChEMBL document CHEMBL4052663, “Synthesis, antiviral evaluation and molecular docking studies of N4-aryl substituted/unsubstituted thiosemicarbazones derived from 1-indanones as potent anti-bovine viral diarrhea virus agents” (Bioorg Med Chem, 2017)
pEC50: −log10 of the molar value. Calls of active or inactive are those of the source. No cut-off for these calls is given here.

Columns and labels:
[1] = Antiviral activity against Bovine viral diarrhea virus 1-NADL infected in bovine MDBK cells assessed as reduction in plaque forming units after 72 hrs by crystal violet staining-based assay; format: functional, cell-based; conditions: Bovine viral diarrhea virus isolates and strains
[2] = Cytotoxicity against bovine MDBK cells assessed as reduction in cell viability after 3 days by MTS/PES assay; format: cell-based, Bos taurus; conditions: cattle
[3] = Selectivity index, ratio of CC50 for bovine MDBK cells to EC50 for Bovine viral diarrhea virus 1-NADL; format: toxicity; conditions: cattle, read-out: Ratio CC50/EC50
[4] = test system: Bovine viral diarrhea virus 1; experiment: Antiviral activity against wild type Bovine viral diarrhea virus 1 ATCC VR 534 infected in bovine MDBK cells assessed as reduction in virus induced cytopathic effect after 72 hrs by MTS/PES assay; format: functional, cell-based; conditions: Bovine viral diarrhea virus isolates and strains, ATCC VR 534, MDBK
[5] = test system: Bovine viral diarrhea virus 1; experiment: Antiviral activity against TSC-resistant Bovine viral diarrhea virus 1 harboring NS5B N264D/A392E double mutant infected in bovine MDBK cells assessed as reduction in virus induced cytopathic effect after 72 hrs by MTS/PES assay; format: functional, cell-based; conditions: Bovine viral diarrhea virus isolates and strains
[6] = test system: Bovine viral diarrhea virus 1; experiment: Antiviral activity against Bovine viral diarrhea virus 1 ATCC VR 534 infected in bovine MDBK cells assessed as reduction in virus induced cytopathic effect at 25 uM treated up to 4 hrs post infection measured after 48 hrs by MTS/PES assay; format: functional, cell-based
[7] = test system: Bovine viral diarrhea virus 1; experiment: Ratio of EC50 for TSC-resistant Bovine viral diarrhea virus type 1 harboring NS5B N264D/A392E double mutant to EC50 for wild type Bovine viral diarrhea virus type 1 ATCC VR 534; format: functional

With `S=C(N/N=C1\CCc2ccccc21)Nc1ccc(Cl)cc1` the pEC50 [1] was less than 4.70 and the CC50 at 72 h [2] was greater than 20 µM.
For `COc1cc2c(cc1OC)/C(=N/NC(=S)Nc1ccc(F)cc1)CC2`, the pEC50 [1] was 5.40, the CC50 at 72 h [2] was greater than 20 µM and the selectivity ratio [3] was greater than 5.
Work on `COc1ccc(NC(=S)N/N=C2\CCc3ccccc32)cc1` yielded a pEC50 [1] of less than 5.00 and a CC50 at 72 h [2] greater than 10 µM.
In the case of `Fc1ccc(NC(=S)N/N=C2\CCc3ccccc32)cc1`, the pEC50 [1] was less than 4.70 and the CC50 at 72 h [2] was greater than 20 µM.
`Cc1cc(Br)c(C)c2c1/C(=N/NC(N)=S)CC2` showed a pEC50 [1] of 5.13, a CC50 at 72 h [2] greater than 100 µM and a selectivity ratio [3] greater than 13.5.
`NC(=S)N/N=C1\CCc2ccc([N+](=O)[O-])cc21` showed a pEC50 [1] of 5.57, a CC50 at 72 h [2] greater than 25 µM and a selectivity ratio [3] greater than 9.3. For the same compound, the pEC50 [4] was 5.98, the pEC50 [5] was 5.97 and the inhibition [6] was “Active”.
For `COc1cc2c(cc1OC)/C(=N/NC(=S)Nc1ccc([N+](=O)[O-])cc1)CC2`, the pEC50 [1] was 6.15, the CC50 at 72 h [2] was greater than 10 µM and the selectivity ratio [3] was greater than 14.3. The pEC50 [4] was 6.35, the pEC50 [5] was less than 5.00 and the “Ratio EC50” value [7] was greater than 22.
Compound `NC(=S)N/N=C1\CCc2c1cccc2[N+](=O)[O-]` has a pEC50 [1] of 5.21, a CC50 at 72 h [2] of 84.6 µM and a selectivity ratio [3] of 14.2.
`COc1cc2c(cc1OC)/C(=N/NC(=S)Nc1ccc(Cl)cc1)CC2` gave a pEC50 [1] of 5.18, a CC50 at 72 h [2] greater than 10 µM and a selectivity ratio [3] greater than 1.5.
Work on `S=C(N/N=C1\CCc2ccccc21)Nc1ccccc1` yielded a pEC50 [1] of less than 5.00 and a CC50 at 72 h [2] greater than 10 µM.
In the case of `O=[N+]([O-])c1ccc(NC(=S)N/N=C2\CCc3ccccc32)cc1`, the pEC50 [1] was less than 5.00 and the CC50 at 72 h [2] was greater than 10 µM.
In the case of `NC(=O)c1ncn([C@@H]2O[C@H](CO)[C@@H](O)[C@H]2O)n1` [RIBAVIRIN], the pEC50 [1] was 5.11 and the selectivity ratio [3] was 7.1.
For `COc1cc2c(cc1OC)/C(=N/NC(N)=S)CC2`, the pEC50 [1] was 5.42, the CC50 at 72 h [2] was greater than 80 µM and the selectivity ratio [3] was greater than 21.1. For the same compound, the pEC50 [4] was 5.71, the pEC50 [5] was less than 4.10 and the “Ratio EC50” value [7] was greater than 41.
`Cc1ccc(NC(=S)N/N=C2\CCc3ccccc32)cc1` gave a pEC50 [1] of less than 4.70 and a CC50 at 72 h [2] greater than 20 µM.
With `COc1ccc(NC(=S)N/N=C2\CCc3cc(OC)c(OC)cc32)cc1` the pEC50 [1] was 4.89, the CC50 at 72 h [2] was greater than 20 µM and the selectivity ratio [3] was greater than 1.6.
Work on `NC(=S)N/N=C1\CCc2cc(F)ccc21` yielded a pEC50 [1] of 5.05, a CC50 at 72 h [2] of 41.9 µM and a selectivity ratio [3] of 5.4.
`COc1cc2c(cc1OC)/C(=N/NC(=S)Nc1ccccc1)CC2` gave a pEC50 [1] of 5.08, a CC50 at 72 h [2] greater than 10 µM and a selectivity ratio [3] greater than 1.2.
With `COc1cc2c(cc1OC)/C(=N/NC(=S)Nc1ccc(C)cc1)CC2` the pEC50 [1] was 5.06, the CC50 at 72 h [2] was greater than 20 µM and the selectivity ratio [3] was greater than 2.3.
